Molecular target: T1, Bcl-2 (Homo sapiens, UniProt P10415)
Assay: Homogeneous HTS assay for inhibitors of the Bcl-2 : Bak (72-87) BH3 domain interaction, fluorescence polarisation (2D-FIDA)
Format: binding
Conditions: fluorescence polarisation, fluorescent labelled Bak BH3 domain derived peptide; read-out: IC50 [μM] Bcl-2

T1 sequence (P10415 whole entry, species assumed, the tested form may be a part): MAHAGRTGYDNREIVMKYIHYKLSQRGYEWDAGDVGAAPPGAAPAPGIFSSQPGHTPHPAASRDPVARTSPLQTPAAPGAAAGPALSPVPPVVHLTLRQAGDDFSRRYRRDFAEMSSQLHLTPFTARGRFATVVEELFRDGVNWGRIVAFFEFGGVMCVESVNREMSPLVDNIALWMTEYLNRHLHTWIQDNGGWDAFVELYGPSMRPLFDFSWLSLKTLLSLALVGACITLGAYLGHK

COc1ccccc1OCCn1c(=N)n(Cc2ccccc2)c2ccccc21 [Compound 95, 1-Benzyl-3-[2-(2-methoxy-phenoxy)-ethyl]-1,3-dihydro-benzoimidazol-2-ylideneamine] and N=c1n(CCCOc2ccc(F)cc2)c2ccccc2n1Cc1ccccc1 [Compound 97, 1-Benzyl-3-[3-(4-fluoro-phenoxy)-propyl]-1,3-dihydro-benzoimidazol-2-ylideneamine] fall in the same range of IC50: 11 to 100 µM for the first, 11 to 100 µM for the second.

First: N=c1n(CCCOc2ccccc2)c2ccccc2n1Cc1ccccc1F [Compound 96, 1-(2-Fluoro-benzyl)-3-(3-phenoxy-propyl)-1,3-dihydro-benzoimidazol-2-ylideneamine]
Second: N=c1n(Cc2ccccc2Cl)c2ccccc2n1CC(O)COc1ccccc1 (stereo not shown) [Compound 102, 1-[3-(2-Chloro-benzyl)-2-imino-2,3-dihydro-benzoimidazol-1-yl]-3-phenoxy-propan-2-ol]
The IC50 of the first is lower: 11 to 100 µM for the first, > 100 µM for the second.

CCCCCn1c(=N)n(CC(O)COc2ccccc2OC)c2ccccc21 (stereo not shown) [Compound 98, 1-(2-Imino-3-pentyl-2,3-dihydro-benzoimidazol-1-yl)-3-(2-methoxy-phenoxy)-propan-2-ol] and CCCCCCn1c(=N)n(CC(O)COc2ccccc2OC)c2ccccc21 (stereo not shown) [Compound 101, 1-(3-Hexyl-2-imino-2,3-dihydro-benzoimidazol-1-yl)-3-(2-methoxy-phenoxy)-propan-2-ol] fall in the same range of IC50: 11 to 100 µM for the first, 11 to 100 µM for the second.

Cc1ccc(OCC(O)Cn2c(=N)n(Cc3ccccc3)c3ccccc32)cc1 (stereo not shown) [Compound 99, 1-(3-Benzyl-2-imino-2,3-dihydro-benzoimidazol-1-yl)-3-p-tolyloxy-propan-2-ol] and Cc1ccc(Cn2c(=N)n(CC(O)COc3ccccc3)c3ccccc32)cc1 (stereo not shown) [Compound 100, 1-[2-Imino-3-(4-methyl-benzyl)-2,3-dihydro-benzoimidazol-1-yl]-3-phenoxy-propan-2-ol] fall in the same range of IC50: 11 to 100 µM for the first, 11 to 100 µM for the second.

N=c1n(Cc2ccc(Cl)cc2)c2ccccc2n1CC(O)COc1ccccc1 (stereo not shown) [Compound 103, 1-[3-(4-Chloro-benzyl)-2-imino-2,3-dihydro-benzoimidazol-1-yl]-3-phenoxy-propan-2-ol] and CC(C)(C)c1ccc(Cn2c(=N)n(CC(O)COc3ccccc3)c3ccccc32)cc1 (stereo not shown) [Compound 104, 1-[3-(4-tert-Butyl-benzyl)-2-imino-2,3-dihydro-benzoimidazol-1-yl]-3-phenoxy-propan-2-ol] fall in the same range of IC50: 11 to 100 µM for the first, 11 to 100 µM for the second.

N=c1n(Cc2ccc(Cl)cc2)c2ccccc2n1CC(O)COc1ccc(Cl)cc1 (stereo not shown) [Compound 105, 1-[3-(4-Chloro-benzyl)-2-imino-2,3-dihydro-benzoimidazol-1-yl]-3-(4-chloro-phenoxy)-propan-2-ol] and N=c1n(Cc2ccccc2)c2ccccc2n1CC(O)COc1ccc(Cl)cc1Cl (stereo not shown) [Compound 106, 1-(3-Benzyl-2-imino-2,3-dihydro-benzoimidazol-1-yl)-3-(2,4-dichloro-phenoxy)-propan-2-ol] fall in the same range of IC50: 11 to 100 µM for the first, 11 to 100 µM for the second.

Molecular target: T1, Bcl-2
Assay: not given
Conditions: reported by Wang and co-workers; read-out: equilibrium binding constant KD to Bcl-2 protein; cited from earlier work

For “BH3 domain derived peptide ligand, sequence GQVGRQLAIIGDDINR, fluorescently labelled for the assay”, the Kd is given as ~0.2 µM.
